In US5635534A, “Aromatic amino-alcohol derivatives having anti-diabetic and anti-obesity properties, their preparation and their therapeutic uses” (Sankyo Company, Limited, priority 1991, dated 1997):
Where a name gives a salt, the structure may show the parent alone. Read-outs that look alike come from different tables or passages of the source.

How the values were obtained:
[1] = test system: male mice of the ddY strain; assay: Toxicity, oral administration to mice, one week observation; format: in vivo, mouse; conditions: 300 mg/kg oral; for survival at the end of the period of observation: groups of 3, one week; for abnormalities which could be attributed to the test compounds: groups of 3, one week observation
Procedure: The test animals employed were male mice of the ddY strain. The animals were employed in groups of 3. The test compound was administered orally to each animal group at a dose of 300 mg/kg body weight. The compounds employed were those prepared as described in Examples 1, 3, 8, 24, 47 and 48.

[2] = test system: KK male mice; assay: Hypoglycemic effect during glucose load in mice; format: in vivo, mouse; conditions: 1 mg/kg oral, 4 mice; for inhibition in vivo at 1 mg/kg: Mus musculus, po
Procedure: Hypoglycemic effect during glucose load
The hypoglycemic effect of the compounds of the present invention during glucose load in mice was measured as follows.
Three month old KK male mice, each weighing 28 to 30 g, were fasted overnight, and then 1 mg/kg of the compound to be tested or carboxymethylcellulose (CMC) as a control was administered orally. After 60 minutes, 1.2 g/kg of D-glucose was administered subcutaneously. Then, at 60 and 120 minutes after the subcutaneous glucose injection, blood samples were taken, and the glucose levels were determined by means of a glucose analyzer (GL-101, a product of Mitsubishi Kasei, Co.). The hypoglycemic rates (R) of the test compound during the glucose load were calculated according to the following equation: […]
A: Blood glucose level in the group administered CMC
B: Blood glucose level in the group administered a test sample.

[3] = target: T1, Bovine lens aldose reductase (Bos taurus, UniProt P16116); assay: Inhibition of Aldose reductase; format: biochemical; conditions: for inhibition at 5 µg/mL: 5 μg/ml
T1 construct: Bovine lens aldose reductase was separated and partially purified; from tissue; host or cells: bovine lens
Procedure: Inhibition of Aldose reductase
Bovine lens aldose reductase was separated and partially purified by the method of S. Hyman and J. H. Kinoshita [J. Biol. Chem., 240, 877 (1965)] and K. Inagaki, I. Miwa and J. Okuda [Arch. Biochem. Biophys., 316, 337 (1982)], and its activity was determined photometrically by the method of Varma et al. [Biochem. Pharmac., 25, 2505 (1976)]. Inhibition of enzyme activity was measured for the compounds of the present invention at a concentration of 5 μg/ml, and the results are shown in the following Table 10.

[4] = 1 h, 60 min after subcutaneous glucose 1.2 g/kg, read-out: Hypoglycemic rate during glucose load, 60 min.
[5] = 2 h, 120 min after subcutaneous glucose 1.2 g/kg, read-out: Hypoglycemic rate during glucose load, 120 min.

**Q.** `CC(COc1ccc(CO)cc1)NCC(O)c1cccc(Cl)c1` (stereo not shown) [Example 1, 2-[2-(4-Hydroxymethylphenoxy)-1-methylethyl]-amino-1-(3-chlorophenyl)ethanol] was tested. Which “survival at the end of the period of observation” value [1] did it give?
**A.** Its value is “All animals were alive”.

**Q.** And the “abnormalities which could be attributed to the test compounds” value [1]?
**A.** Its value is “no abnormalities”.

**Q.** What does the source list for `COC(=O)Cc1ccc(OCC(C)NCC(O)c2cccc(Cl)c2)cc1` (stereo not shown) [Example 3, 2-[2-(4-Methoxycarbonylmethylphenoxy)-1-methylethyl]-amino-1-(3-chlorophenyl)ethanol]?
**A.** inhibition in vivo at 1 mg/kg [2, 4]: 67.3%; inhibition in vivo at 1 mg/kg [2, 5]: 56.5%

**Q.** Which results are given for `COC(=O)C(O)Cc1ccc(OCC(C)NCC(O)c2cccc(Cl)c2)cc1` (stereo not shown) [Example 6, 2-{2-[4-(2-Methoxycarbonyl-2-hydroxyethyl)phenoxy]-1-methylethyl}amino-1-(3-chlorophenyl)ethanol]?
**A.** inhibition in vivo at 1 mg/kg [2, 4]: 43.4%; inhibition in vivo at 1 mg/kg [2, 5]: 40.5%

**Q.** `CC(COc1ccc(CCO)cc1)NCC(O)c1cccc(Cl)c1` (stereo not shown) [Example 8, 2-{2-[4-(2-Hydroxyethyl)phenoxy]-1-methylethyl}amino-1-(3-chlorophenyl)ethanol] was tested. Which inhibition in vivo at 1 mg/kg [2, 4] did it give?
**A.** The inhibition in vivo at 1 mg/kg was 56.8%.

**Q.** What about the inhibition in vivo at 1 mg/kg [2, 5] of the same molecule?
**A.** The inhibition in vivo at 1 mg/kg was 45.1%.

**Q.** With `COC(=O)Cc1ccc(OCC(C)NCC(O)c2cccc(Cl)c2)cc1` (stereo not shown) [Example 24, 2-[2-(4-Methoxycarbonylmethylphenoxy)-1-methylethyl]amino-1-(3-chloropbenyl)ethanol fumarate] as the molecule, how does the “Hypoglycemic rate during glucose load, 60 min.” value ([2]; 60 min after subcutaneous glucose 1.2 g/kg) read?
**A.** The value was 61.4%.

**Q.** What about the “Hypoglycemic rate during glucose load, 120 min.” value ([2]; 120 min after subcutaneous glucose 1.2 g/kg) of the same molecule?
**A.** The value was 56.9%.

**Q.** What does the source list for `COC(=O)Cc1ccc(OC[C@@H](C)NC[C@H](O)c2ccccc2)cc1` [Example 27, 2-[2-(4-Methoxycarbonylmethylphenoxy)-1(R)-methylethyl]amino-1(R)-phenylethanol]?
**A.** inhibition in vivo at 1 mg/kg [2, 4]: 68.4%; inhibition in vivo at 1 mg/kg [2, 5]: 52.1%

**Q.** With `CC(COc1ccc(CC(=O)NO)cc1Cl)NCC(O)c1cccc(Cl)c1` (stereo not shown) [Example 34, 2-{2-[2-Chloro-4-(N-hydroxycarbamoylmethyl)phenoxy]-1-methylethyl}amino-1-(3-chlorophenyl)ethanol] as the molecule, how does the IC50 [3] read?
**A.** The IC50 was 6.05 µM.

**Q.** What about the inhibition at 5 µg/mL [3] of the same molecule?
**A.** The inhibition at 5 µg/mL was 63.3%.

**Q.** With `CC(COc1ccc(CC(=O)O)cc1Cl)NCC(O)c1cccc(Cl)c1` (stereo not shown) [Example 36, 2-[2-(4-Carboxymethyl-2-chlorophenoxy)-1-methylethyl]amino-1-(3-chlorophenyl)ethanol] as the molecule, how does the IC50 [3] read?
**A.** Its IC50 is 7.28 µM.

**Q.** What about the inhibition at 5 µg/mL [3] of the same molecule?
**A.** The inhibition at 5 µg/mL was 60.4%.

**Q.** How did the inhibition in vivo at 1 mg/kg [2, 4] turn out when `COC(=O)Cc1ccc(OCC(C)NCC(O)c2cc(Cl)cc(Cl)c2)cc1` (stereo not shown) [Example 40, 2-[2-(4-Methoxycarbonylmethylphenoxy)-1-methylethyl]amino-1-(3,5-dichlorophenyl)ethanol] was run?
**A.** Its inhibition in vivo at 1 mg/kg is 37.9%.

**Q.** What about the inhibition in vivo at 1 mg/kg [2, 5] of the same molecule?
**A.** Its inhibition in vivo at 1 mg/kg is 24.5%.

**Q.** `COC(=O)Cc1ccc(OCC(C)NCC(O)c2ccc(F)c(Cl)c2)cc1` (stereo not shown) [Example 41, 2-[2-(4-Methoxycarbonylmethylphenoxy)-1-methylethyl]amino-1-(3-chloro-4-fluorophenyl)ethanol] was tested. Which inhibition in vivo at 1 mg/kg [2, 4] did it give?
**A.** Its inhibition in vivo at 1 mg/kg is 50.1%.

**Q.** What about the inhibition in vivo at 1 mg/kg [2, 5] of the same molecule?
**A.** The inhibition in vivo at 1 mg/kg was 43%.

**Q.** How did the inhibition in vivo at 1 mg/kg [2, 4] turn out when `COC(=O)Cc1ccc(OCC(C)NCC(O)c2cccc(Br)c2)cc1` (stereo not shown) [Example 42, 2-[2-(4-Methoxycarbonylmethylphenoxy)-1-methylethyl]amino-1-(3-bromophenyl)ethanol] was run?
**A.** The inhibition in vivo at 1 mg/kg was 60.9%.

**Q.** And the inhibition in vivo at 1 mg/kg [2, 5]?
**A.** Its inhibition in vivo at 1 mg/kg is 57.6%.

**Q.** Which inhibition in vivo at 1 mg/kg [2, 4] does the source give for `COC(=O)Cc1ccc(OCC(C)NCC(O)c2cccc(C(F)(F)F)c2)cc1` (stereo not shown) [Example 43, 2-[2-(4-Methoxycarbonylmethylphenoxy)-1-methylethyl]amino-1-(3-trifluoromethylphenyl)ethanol] here?
**A.** The inhibition in vivo at 1 mg/kg was 66.5%.

**Q.** What about the inhibition in vivo at 1 mg/kg [2, 5] of the same molecule?
**A.** Its inhibition in vivo at 1 mg/kg is 58.6%.

**Q.** For `COC(=O)Cc1ccc(OCC(C)NCC(O)c2cccc(OC)c2)cc1` (stereo not shown) [Example 44, 2-[2-(4-Methoxycarbonylmethylphenoxy)-1-methylethyl]amino-1-(3-methoxyphenyl)ethanol], which inhibition in vivo at 1 mg/kg [2, 4] is on record?
**A.** Its inhibition in vivo at 1 mg/kg is 38.1%.

**Q.** And the inhibition in vivo at 1 mg/kg [2, 5]?
**A.** The inhibition in vivo at 1 mg/kg was 24.8%.

**Q.** How did the inhibition in vivo at 1 mg/kg [2, 4] turn out when `COC(=O)Cc1ccc(OC[C@@H](C)NC[C@H](O)c2cccc(Cl)c2)cc1.O=C(O)/C=C/C(=O)O` [Example 47, 2-[2-(4-Methoxycarbonylmethylphenoxy)-1(R)-methylethyl]amino-1(R)-(3-chlorophenyl)ethanol fumarate] was run?
**A.** Its inhibition in vivo at 1 mg/kg is 60.9%.

**Q.** What about the inhibition in vivo at 1 mg/kg [2, 5] of the same molecule?
**A.** Its inhibition in vivo at 1 mg/kg is 51.5%.

**Q.** And the “survival at the end of the period of observation” value [1]?
**A.** Its value is “All animals were alive”.

**Q.** And the “abnormalities which could be attributed to the test compounds” value [1]?
**A.** Its value is “no abnormalities”.

**Q.** For `C[C@H](COc1ccc(CC2SC(=O)NC2=O)cc1)NC[C@H](O)c1cccc(Cl)c1` (stereo partly drawn) [Example 48, 5-[4-{2(R)-[2(R)-(3-Chlorophenyl)-2-hydroxyethylamino]propoxy}benzyl]thiazolidine-2,4-dione], which inhibition at 5 µg/mL [3] is on record?
**A.** The inhibition at 5 µg/mL was 47.5%.
